# Data reported in patent publication US12410194B2, “Potent and selective azaindole inhibitors of CDK8 and CDK19” (priority 2019, dated 2025).
# Target: CDK8/cyclin C (Homo sapiens (Human), UniProt P49336)
# Assay: LanthaScreen Eu Kinase Binding Assay for CDK8/cyclin C
# Details: 10-point curve, 4-fold dilution series, 60 min at room temperature
# CDK8/cyclin C, sequence (P49336 whole entry, looked up): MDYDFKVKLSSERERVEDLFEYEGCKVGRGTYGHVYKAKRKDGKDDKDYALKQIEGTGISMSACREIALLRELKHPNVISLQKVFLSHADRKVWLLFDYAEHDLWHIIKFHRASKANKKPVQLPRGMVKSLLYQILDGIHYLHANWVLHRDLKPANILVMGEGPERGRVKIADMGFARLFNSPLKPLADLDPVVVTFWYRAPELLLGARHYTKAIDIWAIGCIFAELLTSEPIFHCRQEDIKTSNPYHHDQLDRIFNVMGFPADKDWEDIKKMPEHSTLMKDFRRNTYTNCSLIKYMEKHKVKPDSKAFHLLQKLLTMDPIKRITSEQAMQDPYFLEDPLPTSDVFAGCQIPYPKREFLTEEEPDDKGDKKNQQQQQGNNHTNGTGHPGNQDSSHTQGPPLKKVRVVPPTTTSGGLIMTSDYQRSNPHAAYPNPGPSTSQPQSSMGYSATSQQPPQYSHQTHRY
# CDK8/cyclin C, sequence (P24863 whole entry partner, looked up): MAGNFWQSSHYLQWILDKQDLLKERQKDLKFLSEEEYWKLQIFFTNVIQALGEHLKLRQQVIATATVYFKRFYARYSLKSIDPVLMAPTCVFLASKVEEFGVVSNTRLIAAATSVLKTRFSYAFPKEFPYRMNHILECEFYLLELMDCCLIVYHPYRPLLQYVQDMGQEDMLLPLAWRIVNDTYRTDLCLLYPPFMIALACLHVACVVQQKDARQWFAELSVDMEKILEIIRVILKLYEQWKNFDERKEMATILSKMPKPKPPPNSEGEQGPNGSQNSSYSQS
row,Structure (SMILES),IC50 [nM]
1,"O=C1NCCC12CCN(c1c(-c3ccc4scnc4c3)cnc3[nH]ccc13)CC2 [Compound 002, 8-(5-(benzo[d]thiazol-5-yl)-1H-pyrrolo[2,3-b]pyridin-4-yl)-2,8-diazaspiro[4.5]decan-1-one]",6.46
2,"O=C1NCCC12CCN(c1c(-c3ccc4ncsc4c3)cnc3[nH]ccc13)CC2 [Compound 004, 8-(5-(benzo[d]thiazol-6-yl)-1H-pyrrolo[2,3-b]pyridin-4-yl)-2,8-diazaspiro[4.5]decan-1-one]",24.5
3,"Cn1cnc2cc(-c3cnc4[nH]ccc4c3N3CCC4(CCNC4=O)CC3)ccc21 [Compound 005, 8-(5-(1-methyl-1H-benzo[d]imidazol-5-yl)-1H-pyrrolo[2,3-b]pyridin-4-yl)-2,8-diazaspiro[4.5]decan-1-one]",32.2
4,"Cn1ncc2cc(-c3cnc4[nH]ccc4c3N3CCC4(CCCNC4=O)CC3)ccc21 [Compound 006, 9-(5-(1-methyl-1H-indazol-5-yl)-1H-pyrrolo[2,3-b]pyridin-4-yl)-2,9-diazaspiro[5.5]undecan-1-one]",3
5,"O=C1NCCC12CCN(c1c(-c3ccc4ncnn4c3)cnc3[nH]ccc13)CC2 [Compound 007, 8-(5-([1,2,4]triazolo[1,5-a]pyridin-6-yl)-1H-pyrrolo[2,3-b]pyridin-4-yl)-2,8-diazaspiro[4.5]decan-1-one]",274
6,"O=C1NCCC12CCN(c1c(-c3ccc4[nH]cnc4c3)cnc3[nH]ccc13)CC2 [Compound 008, 8-(5-(1H-benzo[d]imidazol-5-yl)-1H-pyrrolo[2,3-b]pyridin-4-yl)-2,8-diazaspiro[4.5]decan-1-one]",4.97
7,"O=C1NCCC12CCN(c1c(-c3ccn4ccnc4c3)cnc3[nH]ccc13)CC2 [Compound 009, 8-(5-(imidazo[1,2-a]pyridin-7-yl)-1H-pyrrolo[2,3-b]pyridin-4-yl)-2,8-diazaspiro[4.5]decan-1-one]",76.4
8,"Cn1ncc2cc(-c3cnc4[nH]ccc4c3N3CCC4(CC3)CNC4=O)ccc21 [Compound 010, 7-(5-(1-methyl-1H-indazol-5-yl)-1H-pyrrolo[2,3-b]pyridin-4-yl)-2,7-diazaspiro[3.5]nonan-1-one]",6.3
9,"Cn1ncc2cc(-c3cnc4[nH]ccc4c3N3CCC4(CC3)CNC(=O)O4)ccc21 [Compound 011, 8-(5-(1-methyl-1H-indazol-5-yl)-1H-pyrrolo[2,3-b]pyridin-4-yl)-1-oxa-3,8-diazaspiro[4.5]decan-2-one]",7
10,"Cn1ncc2cc(-c3cnc4[nH]ccc4c3N3CCC4(CC3)NC(=O)NC4=O)ccc21 [Compound 014, 8-(5-(1-methyl-1H-indazol-5-yl)-1H-pyrrolo[2,3-b]pyridin-4-yl)-1,3,8-triazaspiro[4.5]decane-2,4-dione]",3
11,"Cn1ncc2cc(-c3cnc4[nH]cnc4c3N3CCC4(CCNC4=O)CC3)ccc21 [Compound 016, 8-(6-(1-methyl-1H-indazol-5-yl)-3H-imidazo[4,5-b]pyridin-7-yl)-2,8-diazaspiro[4.5]decan-1-one]",10
12,"Cn1ncc2cc(-c3cnc4[nH]ccc4c3N3CCC4(CCNC4=O)C3)ccc21 (stereo not shown) [Compound 017, 7-(5-(1-methyl-1H-indazol-5-yl)-1H-pyrrolo[2,3-b]pyridin-4-yl)-2,7-diazaspiro[4.4]nonan-1-one]",55
13,"Cn1ncc2cc(-c3cnc4[nH]cc(Cl)c4c3N3CCC4(CCNC4=O)CC3)ccc21 [Compound 018, 8-(3-chloro-5-(1-methyl-1H-indazol-5-yl)-1H-pyrrolo[2,3-b]pyridin-4-yl)-2,8-diazaspiro[4.5]decan-1-one]",1.73
14,"Cn1ncc2cc(-c3cnc4sccc4c3N3CCC4(CCNC4=O)CC3)ccc21 [Compound 019, 8-(5-(1-methyl-1H-indazol-5-yl)thieno[2,3-b]pyridin-4-yl)-2,8-diazaspiro[4.5]decan-1-one]",206
15,Cn1ncc2cc(-c3cnc4[nH]nc(Cl)c4c3N3CCC4(CCNC4=O)CC3)ccc21 [Compound 020],1.37
16,Cc1n[nH]c2ncc(-c3ccc4c(cnn4C)c3)c(N3CCC4(CCNC4=O)CC3)c12 [Compound 021],36
